Source: US20250242060A1, “CHEMOGENETIC REGULATION OF PEPTIDE FUNCTION” (priority 2022, published 2025)
Entries after “also recorded” stand apart in the source; their conditions may differ.

Key:
mu-opioid receptor (MOR) [1] = experiment: GloSensor cAMP assay, single chain met-enkephalin-CapC-MOR; conditions: HEK 293T, forskolin stimulated
Excerpt: A cyclic adenosine monophosphate (cAMP)-dependent luciferase (GloSensor) was used to monitor the activation of mu-opioid receptor. By expressing the real-time sensor GloSensor in cells, greater luminescence is observed when the cAMP concentration is high, and lower luminescence when the cAMP concentration is low. The GloSensor assay complements the split NanoLuc assay because it measures a downstream event rather than just binding between a G protein and the receptor i.e., membrane tethered opioid peptides (M-PROBE) activation not only causes G protein recruitment, but also downstream signaling events.
To test whether the M-PROBE induces downstream signaling as a free opioid, and that function of met-enkephalin is well-preserved in the membrane-tethered geometry, the same single chain met-enkephalin-CapC-MOR was expressed on the membrane of HEK 293T cells, and co-transfected cells with the cAMP-dependent luciferase. After overnight protein expression, HEK 293T cells were stimulated with forskolin to enhance the cAMP concentration within the cells. MOR is an inhibitory G-protein coupled receptor (GPCR), and its activation leads to decreased cAMP levels. A high cAMP concentration magnifies the effect of MOR activation.

CapN = molecular target: T1, CapN (Homo sapiens, UniProt P62942, F37V); experiment: Shield-1 reversibility characterization with CapN-caged SsrA on yeast surface; assay type: binding; conditions: 10 min shield-1, washed, incubated up to 12 h without shield-1
T1 construct: expressed in transfected cells; host or cells: Saccharomyces cerevisiae EBY100, surface display from pCTCON2
T1 sequence (P62942 with tags, fused parts or gaps F37V): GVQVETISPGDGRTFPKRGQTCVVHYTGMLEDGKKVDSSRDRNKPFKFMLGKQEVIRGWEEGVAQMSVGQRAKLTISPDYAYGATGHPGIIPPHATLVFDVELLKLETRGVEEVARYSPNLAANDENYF
Procedure: FIG. 4. […] Yeast cells were incubated with shield-1 for 10 min, followed by washing to remove excess shield-1. […] Values are median biotin intensity of FLAG-positive cells (Q2+Q4). […] This experiment was performed once.
Yeast that expressed SsrA (CapC constructs) was subject to APEX2 labeling^40 prior to labeling with antibody-fluorophore and streptavidin-fluorophore conjugates. Samples were incubated with 100 μL of PBSB containing SspB-APEX2 (expressed and purified as described above, under “Expression and purification of SspB-APEX2”) and 5 μM shield-1 at room temperature for 10 min with rotation. For negative controls, either SspB-APEX2 or shield-1, or both, was not present in PBSB. […]
(§1) After TEVp or APEX2 labeling, samples were labeled with antibody-fluorophore and/or streptavidin-fluorophore conjugates. […] All samples were resuspended in PBSB and analyzed or sorted by FACS (fluorescence-activated cell sorting, following procedures described under “FACS analysis and library selection”) within 24 h of labeling.
(§2) After labeling according to the procedures described above (under “Yeast labeling”), non-library yeast samples were analyzed with an LSRFortessa cell analyzer flow cytometer (BD Biosciences) equipped with 640 nm laser and 670/14 emission filter (for Alexa Fluor647) as well as 561 nm laser and 586/15 emission filter (for Alexa Fluor568 and PE). […]

[2] = molecular target: T2, LID (FKBP with original binding sequence) fused to TEVcs (Homo sapiens, UniProt P62942, F37V); experiment: Yeast surface protease cleavage assay, TEVcs caged by LID; assay type: biochemical; conditions: LID degradation sequence replaced with TEVcs
T2 construct: TEVcs (ENLYFQ/G) (C); HA (C); expressed in transfected cells; host or cells: Saccharomyces cerevisiae EBY100, surface display from pCTCON2
T2 sequence (P62942 with tags, fused parts or gaps F37V limits assumed): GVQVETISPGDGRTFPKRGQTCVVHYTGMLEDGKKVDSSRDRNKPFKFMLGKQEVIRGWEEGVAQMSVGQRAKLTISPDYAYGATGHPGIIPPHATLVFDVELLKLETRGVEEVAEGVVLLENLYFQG
Procedure: (§3) The ability of LID to cage two short peptides that have been previously shown to be controllable by the AsLOV2 domain was tested. […] The degradation sequence (RRRGN) in LID was replaced with TEVcs or SsrA, and the remainder of the binding sequence and linker was retained (FIG. 1d).
Yeast that expressed TEV protease cleavage site (CapN constructs) was treated with TEVp prior to labeling with antibody-fluorophore conjugate. Samples were incubated with 200 μL PBSB containing TEVp (expressed and purified as described above, under “Expression and purification of TEV protease”) and 5 μM shield-1 at 4° C. for 3 h with rotation. For negative control, either TEVp or shield-1, or both, was not present in PBSB. […]
as §1, §2

[3] = molecular target: T3, LID (FKBP with original binding sequence) fused to SsrA (Homo sapiens, UniProt P62942, F37V); experiment: Yeast surface binding assay, SsrA caged by LID; conditions: LID degradation sequence replaced with SsrA
T3 construct: expressed in transfected cells; host or cells: Saccharomyces cerevisiae EBY100, surface display from pCTCON2
T3 sequence (P62942 with tags, fused parts or gaps F37V): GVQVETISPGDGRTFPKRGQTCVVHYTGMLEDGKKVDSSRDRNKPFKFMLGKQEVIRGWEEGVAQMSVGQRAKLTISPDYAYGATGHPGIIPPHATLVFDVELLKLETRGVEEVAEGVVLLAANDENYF
Procedure: as §3
Yeast that expressed SsrA (CapC constructs) was subject to APEX2 labeling^40 prior to labeling with antibody-fluorophore and streptavidin-fluorophore conjugates. Samples were incubated with 100 μL of PBSB containing SspB-APEX2 (expressed and purified as described above, under “Expression and purification of SspB-APEX2”) and 5 μM shield-1 at room temperature for 10 min with rotation. […]
as §1, §2

[4] = system: CAPs-caged TEVcs with TEV protease in HEK 293T cells; experiment: Shield-1 induced delocalization from the plasma membrane to the cytosol; assay type: cell-based; conditions: 10 μM shield-1, 18 h
Procedure: CAPs-caged TEVcs were anchored to the plasma membrane, followed by the POI (FIG. 9c). Under no shield-1 conditions, TEVcs are inaccessible to the co-expressed TEV protease, and the POI remains localized on the plasma membrane. With shield-1, TEVcs are uncaged and cleaved by TEV protease, thereby releasing the POI from the cell membrane.
Two extra wells without any infection are also plated for background subtraction. […] The two non-infection wells are treated with shield-1 and without shield-1, respectively. HEK 293T cells were incubated for 18 h at 37° C. before imaging.

[5] = system: CAPs-caged NLS (PKIt NES-EGFP-CapN-NLS-CapC) in HEK 293T cells; experiment: Shield-1 controlled nuclear-cytoplasmic protein distribution; assay type: cell-based; conditions: 10 μM shield-1, 18 h
Excerpt: The nucleocytoplasmic distribution of many eukaryotic proteins is a common determinant of their functions^30. Previously, NLS has been controlled by light through customized engineering with the AsLOV2 domain^13,14. To test if NLS is controlled by CAPs in a shield-I-dependent manner, a single-chain construct was designed in which a POI is expressed as a fusion protein with CAPs-caged NLS (FIG. 9e). […] Addition of shield-1 opens the CAPs and exposes NLS to endogenous importins, bringing the POI to the nucleus. Due to the strength of the NLS, a weak nuclear export signal, PKIt^13, was added to the construct to reduce the nuclear localization of the protein in the basal state.
HEK 293T cells were incubated for 18 h at 37° C. before imaging. […] Individual cells and the nuclei are determined by mCherry signal. Mean intensity and area are acquired with Nikon NIS-Elements analysis module. Mean intensities were subtracted by background mean intensity, and the resulting number is multiplied with the area to give total intensities. The EGFP distribution ratio was calculated by the total intensity of EGFP in the cytosol to that in the whole cell. P value was determined by unpaired two-tailed t-tests.

[6] = system: CAPs-caged SsrA split transcription factor in HEK 293T cells; experiment: Shield-1 dependent gene transcription activation, Gal4 DBD, UAS-mCherry reporter; assay type: cell-based; set-up: Gene expression (mCherry) at different shield-1 concentrations: dose or concentration left out as unconfirmed; conditions: for Shield-1-induced increase in mCherry intensity: + vs - shield-1
[7] = molecular target: T4, CAPs-caged SsrA split transcription factor (P2A construct u4) in rat cortical neurons UniProt P62942, F37V); experiment: Shield-1 dependent gene transcription in cultured neurons, TetR DBD, TRE-mCherry reporter; assay type: cell-based; conditions: AAV, 2 μM shield-1, 24 h
T4 construct: P2A self-cleaving peptide, separating it from the SspB-VP16 part (cleaved yes); host or cells: cultured rat cortical neurons, AAV
T4 sequence (P62942 with tags, fused parts or gaps F37V limits assumed): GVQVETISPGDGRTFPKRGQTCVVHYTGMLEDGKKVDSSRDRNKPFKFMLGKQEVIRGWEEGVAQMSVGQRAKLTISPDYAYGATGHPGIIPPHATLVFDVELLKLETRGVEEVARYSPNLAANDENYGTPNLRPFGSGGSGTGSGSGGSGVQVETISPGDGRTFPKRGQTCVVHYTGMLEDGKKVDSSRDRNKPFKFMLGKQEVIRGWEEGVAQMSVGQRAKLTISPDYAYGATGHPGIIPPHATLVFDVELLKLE
Procedure: To test the CAPs chemical-dependent transcriptional system in neuroscience applications, it was tested in cultured neurons. To enable homogeneous expression of DNA in stringent experiments, we generated single viral constructs that express both the DNA-binding and the transcription-activation domains via the self-cleaving peptide P2A or the internal ribosome entry site (TRES) were constructed (FIG. 12b). […] The P2A construct was then used to introduce the TetR DBD and VP16 transcription-activation domain into cultured rat cortical neurons through adeno-associated viruses (AAV), together with another AAV encoding the TRE-mCherry reporter gene. Shield-1 induced 44-fold increase in mCherry reporter gene expression compared to the no shield-1 condition (FIG. 12e and FIG. 19), showing that this system works robustly in cultured neurons.
Rat cortical neurons (Thermo Fisher Scientific, Cat #A1084001) were plated according to the user protocol. […] The viable cell density was determined by adding 10 μL of the cell suspension to 10 μl 0.4% Trypan blue, followed by cell counting using hemocytometer. […]
For neuronal infection, either concentrated AAVes or supernatant AAVes were added the neurons at DIV5-DIV10 (days in vitro). […] P values were determined by unpaired two-tailed t-tests.

mu-opioid receptor (MOR) [8] = experiment: Split NanoLuc assay, 1-chain CapC-caged met-enkephalin fused to opioid receptor, Nb44 recruitment; assay type: cell-based; conditions: HEK293T cells, 1-chain design
Excerpt: To test shield-1 chemical-dependent regulation of an opioid peptide, CapC-caged met-enkephalin was fused directly onto the N-terminus of the opioid receptor as shown in the right panel of FIG. 22. In this design, the M-PROBE cell membrane tethered opioid peptides (M-PROBE) and the opioid receptors were expressed in a fixed ratio in close proximity.

FKBP12(F36V) = FKBP12(F36V) (Homo sapiens, UniProt P62942, F37V); conditions: cited from earlier work
Chain of FKBP12(F36V) (P62942 whole entry F37V): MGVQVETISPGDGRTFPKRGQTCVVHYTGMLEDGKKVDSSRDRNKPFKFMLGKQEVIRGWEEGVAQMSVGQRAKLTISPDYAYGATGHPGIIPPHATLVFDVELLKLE

[9] = molecular target: CAPs-caged SsrA (mCherry-CapN-SsrA-CapC-CAAX) with SspB-EGFP in HEK 293T cells (Homo sapiens, UniProt P62942, F37V); experiment: Shield-1 induced protein translocation to the plasma membrane; conditions: 1 μM shield-1
Excerpt: To test use of CAPs for protein translocation, a shield-1 induced membrane localization system was designed (FIG. 9). In this design, CAPs-caged SsrA peptide is localized on the plasma membrane of HEK 293T cells by fusing to a transmembrane domain. The interacting partner of SsrA, SspB protein, is fused to the protein of interest (POI). As an example, evolved green fluorescent protein (EGFP) was used as the POI. Without shield-1, no binding between SsrA and SspB occurs, and EGFP is found throughout the cell.
Cells were incubated for 24 h at 37° C. before further processing. HEK293T cells were imaged with 60× oil-immersion objective on the Nikon inverted confocal microscope. Shield-1 dissolved in complete growth media was added gently to the top of the media to 1 μM during imaging. The intensity profile was acquired with Nikon NIS-Elements analysis module and plotted by GraphPad Prism 7.

C[C@@H](NC(=O)[C@@H](N)Cc1ccc(O)cc1)C(=O)NCC(=O)N(C)[C@@H](Cc1ccccc1)C(=O)NCCO [DAMGO]
Decrease in luminescence (mu-opioid receptor (MOR) [1]; 10 micromolar): ~80%

CC[C@H](C(=O)N1CCCC[C@H]1C(=O)O[C@H](CCc1ccc(OC)c(OC)c1)c1cccc(OCCN2CCOCC2)c1)c1cc(OC)c(OC)c(OC)c1 [shield-1]
Biotin signal / CapN state after washing away shield-1 (CapN): No decrease in biotin signal; also recorded: CapN remained open | Shield-1 dependence of TEVcs accessibility [2]: not observed | Shield-1 dependence of SsrA accessibility [3]: not observed | EGFP localization after shield-1 addition [4]: depletes EGFP from the plasma membrane; also recorded: depleted the EGFP from the plasma membrane and significantly increased its presence in the cytoplasm | EGFP nuclear-cytosolic distribution after shield-1 addition [5]: depleted from the cytosol and preferentially localized in the nucleus | Shield-1-induced increase in mCherry intensity ([6]; CAPs (tandem) caged 8-amino-acid SsrA): ~25 fold | Shield-1 dependent reporter gene expression change ([6]; CAPs caged 7-amino-acid SsrA (AANDENY), construct u3): 156 fold | Shield-1-induced increase in mCherry intensity ([6]; CapN caged 8-amino-acid SsrA): ~4 fold | Gene expression (mCherry) at different shield-1 concentrations ([6]; construct u3): robust gene expression | Shield-1 incubation period sufficient to induce gene expression ([6]; construct u3, 1 μM shield-1, imaged 24 h after addition): 30 min | Gene expression induction ([6]; construct u3, overnight incubation, shield-1 50 nM or above): > 30 fold | Gene expression ([6]; construct u3, overnight incubation, shield-1 below 10 nM): did not induce gene expression | Shield-1 dependent dynamic range ([6]; maximum over caged peptides): up to 156 fold | Level of EGFP (transcription-activation domain expression) ([6]; shield-1 added to EGFP-SspB-VP16 alone): No difference was found; also recorded: did not increase the level of EGFP | Increase in mCherry expression ([6]; single viral IRES construct (u5)): 123 fold | Increase in mCherry expression ([6]; single viral P2A construct (u4)): 83 fold | Increase in mCherry reporter gene expression vs no shield-1 [7]: 44 fold | Luminescence signal (RLU) (mu-opioid receptor (MOR) [8]): increase the signal | Affinity for FKBP relative to wild-type FKBP (FKBP12(F36V); FKBP12(F36V) vs wild-type FKBP): over 1000 fold | Affinity for FKBP (FKBP12(F36V); FKBP12(F36V)): sub-nanomolar | Decrease in luminescence (mu-opioid receptor (MOR) [1]; shield-1 treated): ~50% | Time to EGFP translocation to the plasma membrane [9]: within seconds
